Drawing on patent US20260234157A1, “COMPOUND AND METHOD FOR TARGETED DEGRADATION OF ANDROGEN RECEPTOR” (Gan & Lee Pharmaceuticals Co., Ltd., priority 2023, published 2026), this text covers inhibition and IC50 for one compound.

Common to all, as to format: cell-based
For assay [1], the target named is T1, AR protein (Homo sapiens, UniProt P10275, T878A).
T1 construct: degradation activity of the compounds disclosed in the present disclosure on AR protein in LNCaP cells; host or cells: LNCaP FGC
T1 sequence (P10275 1-920 T878A): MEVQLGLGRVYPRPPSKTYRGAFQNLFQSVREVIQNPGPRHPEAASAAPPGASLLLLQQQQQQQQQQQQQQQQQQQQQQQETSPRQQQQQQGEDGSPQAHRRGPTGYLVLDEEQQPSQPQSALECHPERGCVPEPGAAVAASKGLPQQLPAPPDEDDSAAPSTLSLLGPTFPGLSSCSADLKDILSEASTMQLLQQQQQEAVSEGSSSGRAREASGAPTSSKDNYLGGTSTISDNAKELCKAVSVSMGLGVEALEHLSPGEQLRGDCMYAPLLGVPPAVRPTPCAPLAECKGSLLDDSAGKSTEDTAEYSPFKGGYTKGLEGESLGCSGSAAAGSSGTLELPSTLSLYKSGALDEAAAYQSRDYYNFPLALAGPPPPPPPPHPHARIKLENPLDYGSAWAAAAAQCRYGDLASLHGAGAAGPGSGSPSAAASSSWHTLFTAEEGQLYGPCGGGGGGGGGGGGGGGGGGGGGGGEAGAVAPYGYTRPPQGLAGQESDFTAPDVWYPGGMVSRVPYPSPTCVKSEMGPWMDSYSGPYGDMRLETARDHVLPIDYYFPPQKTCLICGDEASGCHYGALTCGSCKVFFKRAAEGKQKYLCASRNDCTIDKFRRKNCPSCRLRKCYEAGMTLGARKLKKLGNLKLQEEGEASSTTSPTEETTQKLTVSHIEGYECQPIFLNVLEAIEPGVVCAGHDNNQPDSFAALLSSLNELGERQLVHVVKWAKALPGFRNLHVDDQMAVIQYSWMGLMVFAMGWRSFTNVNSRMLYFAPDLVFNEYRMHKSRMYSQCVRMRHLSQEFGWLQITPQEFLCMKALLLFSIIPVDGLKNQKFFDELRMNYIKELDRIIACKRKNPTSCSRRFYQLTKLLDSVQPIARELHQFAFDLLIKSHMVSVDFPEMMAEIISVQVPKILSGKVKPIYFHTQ
The assay can be described thus: Degradation of AR protein in LNCaP cells (Western blot). The note with it: LNCaP cells, 8 hours, Western blot grayscale, GAPDH internal reference. Put shortly:
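Percent AR degradation was derived from GAPDH-normalised Western blot band intensities (infrared detection) in LNCaP lysates.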
On the technique in general: Immunoblotting shows a protein as a band on a membrane.

Assay [2] has as its target T2, AR protein (Homo sapiens, UniProt P10275).
T2 construct: degradation activity of the compounds disclosed in the present disclosure on AR protein in VCaP cells; host or cells: VCaP
T2 sequence (P10275 1-920): T1 sequence (P10275 1-920 T878A) with A878T
The assay can be described thus: Degradation of AR protein in VCaP cells (Western blot). The note with it: 8 hours. Put shortly: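 Western blot readout: AR band grayscale normalised to GAPDH, used to derive degradation rate. Lysates came from VCaP cells exposed to compound for 8 h, with solvent controls run in parallel.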

For another assay, the system named is LNCaP FGC cells. The assay can be described thus: Inhibition of proliferation of LNCaP cells (WST-8). The note with it: Homo sapiens, LNCaP, 96 h, LNCaP FGC cells, 96 hours, WST-8 absorbance at 450 nm; read-out: IC50 for inhibiting the proliferation of LNCaP cells. On the procedure: The cells were cultured in a cell culture incubator with 5% CO2 at 37° C. overnight. […] On the sixth day, 96 well plates were taken out, and 20 μL of WST-8 (Beytime, C0040) reagent was added to each well.

In a further assay the test system is VCaP cells. The assay is described as follows: Inhibition of proliferation of VCaP cells (WST-8). The note with it: Homo sapiens; VCaP cells, 168 hours, WST-8 absorbance at 450 nm; read-out: IC50 for inhibiting the proliferation of VCaP cells. Put shortly: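 Proliferation was read by WST-8 on day nine. Cells were VCaP FGC, seeded at 15000 cells per well in 10% FBS DMEM and kept at 37° C with 5% CO2.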
For orientation: Formazan colour is commonly taken as a measure of viable cells.

Where a chain is given by its changes, count along the chain named.

Turning to `COc1cc(O[C@H]2C(C)(C)[C@H](NC(=O)c3ccc(N4CCC(CN5CC6(CCc7cc8c(cc7O6)CN(C6CCC(=O)NC6=O)C8=O)C5)CC4)cc3)C2(C)C)ccc1C#N` (stereo partly drawn) [Compound 297], the inhibition at 0.01 µM turned out to be 42% on AR protein [1] (compound 10 nM, read-out: Degradation rates of the AR protein in LNCaP cells, 10 nM (%)) and 47% at AR protein [2] (compound at 10 nM, read-out: Degradation rate of the AR protein in VCaP cells, 10 nM (%)). Also, the inhibition at 0.1 µM on AR protein [1] (compound 100 nM, read-out: Degradation rates of the AR protein in LNCaP cells, 100 nM (%)) was found to be 40%; at AR protein [2] (compound at 100 nM, read-out: Degradation rate of the AR protein in VCaP cells, 100 nM (%)), 81%. Also, the IC50 in the assay with LNCaP FGC cells came to 61.4 µM; in the assay with VCaP cells it was 0.002 µM.
